Results reported in PubChem BioAssay (NCI).
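Five concentrations, 48 hours, 96-well plates. TGI: concentration producing complete growth inhibition.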

What was measured:
Assay in all cases: NCI anticancer screen, dose series, 48 h
[1] = tested on: HCT-116 colon
[2] = tested on: HL-60(TB) leukemia
[3] = tested on: HOP-62 NSCLC
[4] = tested on: DMS 114 small cell lung
[5] = tested on: RPMI-8226 leukemia
[6] = tested on: HCC-2998 colon
[7] = tested on: HT29 colon
[8] = tested on: NCI-H460 lung
[9] = tested on: OVCAR-4 ovarian
[10] = tested on: UO-31 renal
[11] = tested on: K-562 leukemia
[12] = tested on: UACC-62 melanoma
[13] = tested on: HCT-15 colon
[14] = tested on: A549 NSCLC
[15] = tested on: DMS 273 small cell lung
[16] = tested on: NCI-H23 lung
[17] = tested on: SN12C renal
[18] = tested on: SK-MEL-5 melanoma
[19] = tested on: SF-539 CNS
[20] = tested on: SK-OV-3 ovarian
[21] = tested on: MALME-3M melanoma
[22] = tested on: CCRF-CEM leukemia
[23] = tested on: CAKI-1 renal
[24] = tested on: M14 melanoma
[25] = tested on: 786-0 renal
[26] = tested on: HOP-92 NSCLC
[27] = tested on: SNB-19 CNS
[28] = tested on: SF-268 CNS
[29] = tested on: NCI-H522 lung
[30] = tested on: LOX IMVI melanoma
[31] = tested on: IGROV1 ovarian
[32] = tested on: SNB-78 CNS
[33] = tested on: LXFL 529 NSCLC
[34] = tested on: OVCAR-3 ovarian
[35] = tested on: KM12 colon
[36] = tested on: TK-10 renal
[37] = tested on: RXF 393 renal
[38] = tested on: SF-295 CNS
[39] = tested on: U251 CNS
[40] = tested on: SK-MEL-2 melanoma
[41] = tested on: M19-MEL melanoma
[42] = tested on: DLD-1 colon
[43] = tested on: XF 498 CNS
[44] = tested on: OVCAR-8 ovarian
[45] = tested on: COLO 205 colon
[46] = tested on: MOLT-4 leukemia
[47] = tested on: UACC-257 melanoma
[48] = tested on: SK-MEL-28 melanoma
[49] = tested on: SW-620 colon
[50] = tested on: EKVX NSCLC
[51] = tested on: SNB-75 CNS
[52] = tested on: NCI-H226 lung
[53] = tested on: MCF7 breast
[54] = tested on: HOP-18 NSCLC
[55] = tested on: OVCAR-5 ovarian
[56] = tested on: MDA-MB-231 breast
[57] = tested on: PC-3 prostate
[58] = tested on: DU-145 prostate
[59] = tested on: MDA-N
[60] = tested on: A498 renal
[61] = tested on: BT-549 breast
[62] = tested on: ACHN renal
[63] = tested on: SR leukemia
[64] = tested on: NCI/ADR-RES ovarian
[65] = tested on: MDA-MB-435
[66] = tested on: T-47D breast
[67] = tested on: KM20L2 colon

Structure (SMILES): CCOC1=C2C(=O)OC(=O)C2C2CCCCC2=C1 (stereo not given)
- TGI [1]: > 100 µM
- TGI [2]: > 100 µM
- TGI [3]: > 100 µM
- TGI [4]: > 100 µM
- TGI [5]: > 100 µM
- TGI [6]: > 100 µM
- TGI [7]: > 100 µM
- TGI [8]: > 100 µM
- TGI [9]: > 100 µM
- TGI [10]: > 100 µM
- TGI [11]: > 100 µM
- TGI [12]: > 100 µM
- TGI [13]: > 100 µM
- TGI [14]: > 100 µM
- TGI [15]: > 100 µM
- TGI [16]: > 100 µM
- TGI [17]: > 100 µM
- TGI [18]: > 100 µM
- TGI [19]: > 100 µM
- TGI [20]: > 100 µM
- TGI [21]: > 100 µM
- TGI [22]: > 100 µM
- TGI [23]: > 100 µM
- TGI [24]: > 100 µM
- TGI [25]: > 100 µM
- TGI [26]: > 100 µM
- TGI [27]: > 100 µM
- TGI [28]: > 100 µM
- TGI [29]: > 100 µM
- TGI [30]: > 100 µM
- TGI [31]: > 100 µM
- TGI [32]: > 100 µM
- TGI [33]: > 100 µM
- TGI [34]: > 100 µM
- TGI [35]: > 100 µM
- TGI [36]: > 100 µM
- TGI [37]: > 100 µM
- TGI [38]: > 100 µM
- TGI [39]: > 100 µM
- TGI [40]: > 100 µM
- TGI [41]: > 100 µM
- TGI [42]: > 100 µM
- TGI [43]: > 100 µM
- TGI [44]: > 100 µM
- TGI [45]: > 100 µM
- TGI [46]: > 100 µM
- TGI [47]: > 100 µM
- TGI [48]: > 100 µM
- TGI [49]: > 100 µM
- TGI [50]: > 100 µM
- TGI [51]: > 100 µM

Structure (SMILES): CN(C)C(=S)/N=c1\ssc(=S)n1Cc1ccccc1
- TGI [1]: 29.6 µM
- TGI [2]: 5.31 µM
- TGI [3]: 20.7 µM
- TGI [52]: 28 µM
- TGI [4]: 0.456 µM
- TGI [5]: 31.6 µM
- TGI [6]: > 27.7 µM
- TGI [7]: 11.7 µM
- TGI [8]: 22.6 µM
- TGI [53]: > 46.4 µM
- TGI [9]: 30.2 µM
- TGI [54]: > 100 µM
- TGI [10]: 54 µM
- TGI [11]: 12.5 µM
- TGI [12]: 16.8 µM
- TGI [13]: > 49.6 µM
- TGI [55]: > 63.1 µM
- TGI [14]: 56 µM
- TGI [16]: 24.8 µM
- TGI [17]: > 63.1 µM
- TGI [18]: 18.3 µM
- TGI [56]: 42.6 µM
- TGI [19]: 1.49 µM
- TGI [20]: 5.27 µM
- TGI [57]: 35.5 µM
- TGI [21]: 30.7 µM
- TGI [22]: 49.6 µM
- TGI [23]: > 56.2 µM
- TGI [24]: 13 µM
- TGI [25]: 15.9 µM
- TGI [58]: 21.7 µM
- TGI [26]: 7.63 µM
- TGI [27]: > 56.2 µM
- TGI [59]: 1.21 µM
- TGI [28]: > 63.1 µM
- TGI [29]: 0.617 µM
- TGI [30]: > 63.1 µM
- TGI [60]: > 69.5 µM
- TGI [31]: > 46.4 µM
- TGI [32]: > 100 µM
- TGI [33]: > 100 µM
- TGI [34]: 0.512 µM
- TGI [35]: > 100 µM
- TGI [36]: 47.1 µM
- TGI [61]: > 100 µM
- TGI [37]: 1 µM
- TGI [38]: 6.29 µM
- TGI [39]: 18.6 µM
- TGI [62]: > 56.2 µM
- TGI [63]: 37.3 µM
- TGI [40]: 9.67 µM
- TGI [41]: > 100 µM
- TGI [64]: 0.401 µM
- TGI [42]: > 55.1 µM
- TGI [44]: 17.7 µM
- TGI [45]: 1.95 µM
- TGI [46]: 29 µM
- TGI [65]: 0.269 µM
- TGI [66]: > 31.6 µM
- TGI [47]: > 56.2 µM
- TGI [48]: > 63.1 µM
- TGI [49]: > 46.4 µM
- TGI [50]: 57.6 µM
- TGI [67]: 0.388 µM
- TGI [51]: 3.29 µM

Structure (SMILES): O=C1c2ccccc2OP(=O)(OCC(F)(F)F)OC1(C(F)(F)F)C(F)(F)F (stereo not given)
- TGI [1]: > 100 µM
- TGI [2]: > 100 µM
- TGI [3]: > 100 µM
- TGI [52]: > 100 µM
- TGI [4]: > 100 µM
- TGI [5]: > 100 µM
- TGI [6]: > 100 µM
- TGI [7]: > 100 µM
- TGI [8]: > 100 µM
- TGI [9]: > 100 µM
- TGI [10]: > 100 µM
- TGI [11]: > 100 µM
- TGI [12]: > 100 µM
- TGI [13]: > 100 µM
- TGI [55]: > 100 µM
- TGI [14]: > 100 µM
- TGI [15]: > 100 µM
- TGI [16]: > 100 µM
- TGI [17]: > 100 µM
- TGI [18]: > 100 µM
- TGI [19]: > 100 µM
- TGI [20]: > 100 µM
- TGI [22]: > 100 µM
- TGI [23]: > 100 µM
- TGI [24]: > 100 µM
- TGI [25]: > 100 µM
- TGI [26]: > 100 µM
- TGI [27]: > 100 µM
- TGI [28]: > 100 µM
- TGI [29]: > 100 µM
- TGI [30]: > 100 µM
- TGI [60]: > 100 µM
- TGI [31]: > 100 µM
- TGI [32]: > 100 µM
- TGI [33]: > 100 µM
- TGI [35]: > 100 µM
- TGI [36]: > 100 µM
- TGI [37]: > 100 µM
- TGI [38]: > 100 µM
- TGI [39]: > 100 µM
- TGI [62]: > 100 µM
- TGI [63]: > 100 µM
- TGI [40]: > 100 µM
- TGI [41]: > 100 µM
- TGI [43]: > 100 µM
- TGI [44]: > 100 µM
- TGI [45]: > 100 µM
- TGI [46]: > 100 µM
- TGI [47]: > 100 µM
- TGI [48]: > 100 µM
- TGI [49]: > 100 µM
- TGI [50]: > 100 µM
- TGI [67]: > 100 µM
- TGI [51]: > 100 µM
